Measurements reported in US20040175447A1, “Feeds and fertilizers containing pentacyclic triterpenes” (The Nisshin OilliO, Ltd., priority 2001, published 2004).

Tested on: B-16 melanoma cells
Assay: Evaluation of melanin production-inhibitory effect (cell-whitening degree of cultured B-16 melanoma cells); for Melanin production-inhibitory effect (cell-whitening degree): key: ++: The whitening degree is higher than that observed for the positive control; +: The whitening degree is almost identical to that observed for the positive control; ±: The whitening degree is not higher than that observed for the positive control, but higher than that observed for the control; −: The whitening degree is almost identical to that observed for the control
Format: cell-based
Details: for Melanin production-inhibitory effect (cell-whitening degree): positive control 450 ppm vitamin C-magnesium phosphate; for melanogenesis-inhibitory function relative to that observed when 450 ppm of vitamin C-magnesium phosphate (standard) is added: from Table 1
Method: In the present invention, the melanogenesis-inhibitory effect is evaluated and compared on the basis of the results of tests for examining the melanogenesis-inhibitory function in which B-16 melanoma cells are cultivated, as a primary evaluation. Moreover, a feed is, for instance, practically prepared and its effectiveness in the melanogenesis-inhibition is evaluated as a secondary evaluation. It has been confirmed that the pentacyclic triterpenes whose strong melanogenesis-inhibitory function is confirmed by the cell culture test as the primary evaluation also show an excellent effect in the secondary evaluation test. In addition, it has also been confirmed that there is a correlation between the results obtained in these two evaluation methods.
If the culture system includes a melanogenesis-inhibitory substance during the proliferation thereof, the blackening of the cells is suppressed while the whitening thereof is relatively promoted. Accordingly, the melanogenesis-inhibitory function of the substance can be evaluated by comparing the degree of whitening observed for the substance with the degree of blackening observed for a control. The evaluated results of the melanogenesis-inhibitory effect obtained in this cell culture system clearly indicate that the pentacyclic triterpenes and/or physiologically acceptable salts thereof or derivatives thereof have quite strong melanogenesis-inhibitory effects. For instance, when comparing the effects thereof with that achieved by vitamin C-magnesium phosphate, the melanogenesis-inhibitory effect is about 100 to 200 times, for maslinic acid, about 100 to 200 times, for maslinic acid salts, about 10 to 100 times, for erythrodiol, about 30 to 120 times, for uvaol, about 30 to 120 times, for betulinic acid, about 10 to 100 times, for betulin, about 100 to 200 times, for ethyl maslinate, about 50 to 150 times, for acetylated maslinic acid, about 30 to 120 times, for triethylsilylated maslinic acid, about 50 to 150 times, for stearoyl derivative of ethyl maslinate, about 10 to 100 times, for acetylated erythrodiol, about 10 to 100 times, for acetylated uvaol, about 10 to 100 times, for ethyl betulinate, and about 5 to 50 times, for acetylated betulin, that observed for the vitamin C-magnesium phosphate.
A culture medium was dispensed to wells of a 6-well plate (2 mL/well each), followed by inoculation of a desired amount of B-16 melanoma cells on each well, allowing the wells to stand at 37° C. and 5% CO2 to thus cultivate the cells. On the day subsequent thereto, a candidate sample (pentacyclic triterpenes) solution prepared was added to and mixed with the culture medium containing the cells and the cultivation was continued. The culture medium was replaced with fresh one on the 5th day from the initiation of the cultivation and the prepared sample solution was again added to the wells. On the next day, the culture medium was removed to recover the cells, followed by the washing of these cells with PBS (phosphate buffered physiological saline) and the subsequent evaluation of the cell-whitening degree. In this respect, the melanogenesis-inhibitory function was evaluated by comparing the cell-whitening degree thus obtained with that observed when using 450 ppm of vitamin C-magnesium phosphate as a known whitening agent (a positive control) and that obtained when any candidate sample was not used (control), according to the following evaluation criteria.
The evaluation criteria for the cell-whitening degree are as follows:
Regarding the results listed in Table 1, the whitening degree observed when adding 450 ppm of vitamin C-magnesium phosphate is selected as a standard.

Compound | Melanin production-inhibitory effect (cell-whitening degree) (2 ppm) | Melanin production-inhibitory effect (cell-whitening degree) (6 ppm) | Melanin production-inhibitory effect (cell-whitening degree) (10 ppm) | Melanin production-inhibitory effect (cell-whitening degree) (25 ppm) | Melanin production-inhibitory effect (cell-whitening degree) (50 ppm) | melanogenesis-inhibitory function relative to that observed when 450 ppm of vitamin C-magnesium phosphate (standard) is added | Melanin production-inhibitory effect (cell-whitening degree) (15 ppm) | Melanin production-inhibitory effect (cell-whitening degree) (100 ppm) | Melanin production-inhibitory effect (cell-whitening degree) (200 ppm) | Melanin production-inhibitory effect (cell-whitening degree) (300 ppm) | Melanin production-inhibitory effect (cell-whitening degree) (450 ppm) | concentration required for showing the effect identical to that observed for 450 ppm of vitamin C-magnesium phosphate [ppm] | Melanin production-inhibitory effect (cell-whitening degree) (4 ppm) | Melanin production-inhibitory effect (cell-whitening degree) (8 ppm)
CC1(C)CC[C@]2(CO)CC[C@]3(C)C(=CC[C@@H]4[C@@]5(C)CC[C@H](O)C(C)(C)[C@@H]5CC[C@]43C)[C@@H]2C1 [Erythrodiol] | ± | ± | ± | + | + | about 20 times |  |  |  |  |  |  |  | 
O=c1cc(CO)occ1O [Kojic Acid, reference compound] |  |  | − | − | ± |  | − | ± | + | ++ | ++ |  |  | 
CC1(C)CC[C@]2(C(=O)O)CC[C@]3(C)C(=CC[C@@H]4[C@@]5(C)C[C@@H](O)[C@H](O)C(C)(C)[C@@H]5CC[C@]43C)[C@@H]2C1 [Purified maslinic acid 1, maslinic acid] |  |  |  |  |  | about 110 times |  |  |  |  |  | 4 |  | 
CC1(C)CC[C@]2(C(=O)O)CC[C@]3(C)C(=CC[C@@H]4[C@@]5(C)C[C@@H](O)[C@H](O)C(C)(C)[C@@H]5CC[C@]43C)[C@@H]2C1 [Purified maslinic acid 2, maslinic acid] | ± | ++ | ++ |  |  |  |  |  |  |  |  |  | + | ++
C[C@H]1[C@H](C)CC[C@]2(C(=O)O)CC[C@]3(C)C(=CC[C@@H]4[C@@]5(C)CC[C@H](O)C(C)(C)[C@@H]5CC[C@]43C)[C@H]12 [Ursolic acid] | ± | ++ | ++ |  |  | about 110 times |  |  |  |  |  |  | + | ++
C[C@H]1[C@H](C)CC[C@]2(CO)CC[C@]3(C)C(=CC[C@@H]4[C@@]5(C)CC[C@H](O)C(C)(C)[C@@H]5CC[C@]43C)[C@H]12 [Uvaol] | − | − | + | + | + | about 40 times |  |  |  |  |  |  |  | 
